# Legend:
# [1] = test system: transgenic tobacco plants expressing SEQ ID NO1 or SEQ ID NO 17; experiment: LC/MS of foliar extracts after herbicide treatment; type: in vivo; settings: 24 and 48 h after treatment, 80% acetonitrile/water extract
# Protocol: (§1) The expected glucosides of herbicides V and VI corresponding to those seen in vitro are also similarly produced in transgenic […] plants expressing Zea mays BX9 or expressing mutant derivatives of Zea mays BX9. For example, LC/MS analysis of extracts of leaves obtained by maceration and extraction into 80% acetonitrile/water 24 and 48 h after treatment with herbicides V and VI indicate that the same beta-glucosides that are produced by the enzymes in vitro are produced in planta.
# [2] = test system: non-transgenic w/t Zea mays seedlings; experiment: LC/MS of foliar extracts after herbicide treatment; type: in vivo; settings: 24 and 48 h after treatment, 80% acetonitrile/water extract
# Protocol: as §1
# [3] = test system: transgenic tobacco plants expressing zmBX8 (SEQ ID No 2); experiment: Glass house spray test on tobacco, percent damage; type: in vivo; settings: 30 g/ha
# Protocol: In the present example, Zea mays BX8 or BX9 or orthologues of BX8/9, for example SEQ ID Nos. 1-59 and various herbicide-active mutations and combinations of mutations thereof (e.g. as listed in Tables 1-9) are expressed in transgenic tobacco. DNA sequences that encode these polypeptides (optimized for tobacco or, optionally, codon optimized according to a target crop such as soybean) are prepared synthetically and obtained commercially from Genewiz (South Plainfield, USA). Each sequence is designed to include a 5′ fusion with TMV omega 5′ leader (SEQ ID NO: 109). The DNA sequences are flanked at the 5′ end with XhoI and at the 3′ end with KpnI to facilitate direct cloning into a suitable binary vector for Agrobacterium-based plant transformation. […]
# Three transgenic populations of about forty tobacco plants and comprising, a glucosyl transferase gene encoding either zmBX8 (SEQ ID NO 2) or zmBX9 (SEQ ID NO 1) were thus produced. […] Plants were assessed for damage and scored at 7 and 14 days after treatment (DAT).
# [4] = molecular target: T1, Zea mays bx8 (SEQ ID No: 2) with GIGVD peptide insert in place of D442 (Zea mays, UniProt Q8W2B7, INS441GIGV); experiment: LC/MS glucosyl transferase assay (glucoside peak area), purified enzyme; type: biochemical; settings: LC/MS assay run for 30 min
# T1 construct: His tag (N); made in house; host or cells: E. coli, pET24a
# T1 sequence (Q8W2B7 other isoform, or with tags, fused parts or gaps INS441GIGV): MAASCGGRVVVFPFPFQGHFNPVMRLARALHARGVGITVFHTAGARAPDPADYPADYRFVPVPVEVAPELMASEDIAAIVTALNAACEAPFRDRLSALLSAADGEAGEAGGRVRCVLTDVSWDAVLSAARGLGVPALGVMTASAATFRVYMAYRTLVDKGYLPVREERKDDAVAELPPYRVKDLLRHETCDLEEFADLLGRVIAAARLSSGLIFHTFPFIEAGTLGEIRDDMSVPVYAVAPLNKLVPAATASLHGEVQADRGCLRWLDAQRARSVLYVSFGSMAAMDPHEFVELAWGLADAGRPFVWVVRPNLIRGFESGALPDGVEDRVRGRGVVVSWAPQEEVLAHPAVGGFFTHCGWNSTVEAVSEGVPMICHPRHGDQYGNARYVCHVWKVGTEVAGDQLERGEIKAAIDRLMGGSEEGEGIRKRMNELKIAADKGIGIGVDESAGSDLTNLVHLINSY
# Protocol: In an alternative method for assaying the various enzymes, the test glucosyl transferase enzyme is reacted with substrates exactly as above except that the assay is stopped by adding an equal volume of acetonitrile. Alternatively 50 or 100 μl samples from assay reactions are added to 500 μl ethyl acetate to stop the reaction. In this case samples are then vortexed and 400 μl of the ethyl acetate partition removed, dried down, and resuspended in 100 μl 80:20 acetonitrile/water. The formation of product gluco side and/or disappearance of substrate test herbicide is then monitored directly by LC/MS. Samples are analyzed by LC-MS using an Agilent 1290 liquid chromatography system and Thermo Q-Exactive mass spectrometer. The chromatography is achieved on a Waters Acquity C18 BEH (50×2.1 mm) 1.7 μm particle size column, using a 6 minute gradient run of Water (0.2% formic acid) and Acetonitrile. The Q-Exactive is operated in positive ionisation electrospray mode, using Full scan-AIF mode, at 35,000 resolution, between 100-800 m/z. All analytes are identified from the full scan data to within at least 5 ppm accuracy of their predicted pseudo-molecular ion [M+H]^+ m/z value. In order to obtain quantitative data standard curves are run using herbicides and herbicide glucosides synthesized as standards. […]
Structure (SMILES),glucoside found in foliar extract [1],glucoside found in foliar extract [2],tolerance [3],integrated peak area of glucoside product [4]
CON1C(=O)N(c2cc(C(F)(F)F)ccn2)C(O)[C@@H]1C (stereo partly shown) [Compound VI],mainly the S-beta stereoisomer O-glucoside product of VI,the S-beta stereoisomer O-glucoside product of VI,little or no tolerance,
CN1CC(O)N(c2cc(C(F)(F)F)ccn2)C1=O (stereo not shown) [Compound V],,,,2.5E6 units

# From patent US20200270588A1, “GLUCOSYL TRANSFERASE POLYPEPTIDES AND METHODS OF USE” (Syngenta Participations AG, priority 2017, published 2020)
